Laboratory results from the supplement of paper PMC5908809.

Columns and labels:
[1] = tested on: normal NK cells expanded with K562-aAPC; test: percent inhibition of viability; higher = more inhibition; settings: 72 h, IL-2 2.5 ng/mL
Description: (§1)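 Drug sensitivity and resistance testing on K562-aAPC-expanded normal NK cells: 5 concentrations (10-fold steps over a 10,000-fold range), 72 h at 37 °C, viability by CellTiter-Glo normalised to DMSO and benzethonium chloride controls; DSS from the fitted curve.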

[2] = tested on: DERL-7 (IL-2 2.5 ng/mL); test: as above; settings: 72 h
[3] = tested on: IMC-1 (IL-2 20 ng/mL); test: as above; settings: 72 h
[4] = tested on: KAI3 (IL-2 2.5 ng/mL); test: as above; settings: 72 h
[5] = tested on: KHYG-1 (IL-2 2.5 ng/mL); test: as above; settings: 72 h
[6] = tested on: NK-92 (IL-2 2.5 ng/mL); test: as above; settings: 72 h
[7] = tested on: NK-YS (IL-2 2.5 ng/mL); test: as above; settings: 72 h
[8] = tested on: NKL (IL-2 2.5 ng/mL); test: as above; settings: 72 h
[9] = tested on: SNK-6 (IL-2 2.5 ng/mL); test: as above; settings: 72 h
[10] = tested on: YT (IL-2 2.5 ng/mL); test: as above; settings: 72 h
[11] = tested on: normal primary NK cells, pool 1 (3 donors) (IL-2 2.5 ng/mL); test: as above; settings: 72 h
[12] = tested on: normal primary NK cells, pool 1 (3 donors), resting (IL-2 0 ng/mL); test: as above; settings: 72 h
[13] = tested on: normal primary NK cells, pool 2 (3 donors) (IL-2 2.5 ng/mL); test: as above; settings: 72 h
[14] = tested on: normal primary NK cells, pool 3 (3 donors) (IL-2 2.5 ng/mL); test: as above; settings: 72 h
[15] = tested on: normal NK cells expanded with K562-aAPC; test: drug sensitivity score (DSS) (DSS units); higher = more sensitive; extreme values may be limits of the assay; settings: 72 h; IL-2 2.5 ng/mL
Description: as §1

[16] = tested on: DERL-7 (IL-2 2.5 ng/mL); test: as above; settings: 72 h
[17] = tested on: IMC-1 (IL-2 20 ng/mL); test: as above; settings: 72 h
[18] = tested on: KAI3 (IL-2 2.5 ng/mL); test: as above; settings: 72 h
[19] = tested on: KHYG-1 (IL-2 2.5 ng/mL); test: as above; settings: 72 h
[20] = tested on: NK-92 (IL-2 2.5 ng/mL); test: as above; settings: 72 h
[21] = tested on: NK-YS (IL-2 2.5 ng/mL); test: as above; settings: 72 h
[22] = tested on: NKL (IL-2 2.5 ng/mL); test: as above; settings: 72 h
[23] = tested on: SNK-6 (IL-2 2.5 ng/mL); test: as above; settings: 72 h
[24] = tested on: YT (IL-2 2.5 ng/mL); test: as above; settings: 72 h
[25] = tested on: normal primary NK cells, pool 1 (3 donors) (IL-2 2.5 ng/mL); test: as above; settings: 72 h
[26] = tested on: normal primary NK cells, pool 1 (3 donors), resting (IL-2 0 ng/mL); test: as above; settings: 72 h
[27] = tested on: normal primary NK cells, pool 2 (3 donors) (IL-2 2.5 ng/mL); test: as above; settings: 72 h
[28] = tested on: normal primary NK cells, pool 3 (3 donors) (IL-2 2.5 ng/mL); test: as above; settings: 72 h

CNC(=O)c1ccc(N2C(=S)N(c3ccc(C#N)c(C(F)(F)F)c3)C(=O)C23CCC3)cc1F [RD162] (max concentration tested 10000 nM)
percent inhibition of viability [%]
Settings | 1 nM | 10 nM | 100 nM | 1000 nM | 10000 nM
[1] | -8.24 | -9.67 | -4.97 | 7.5 | 1.43
[2] | 2.54 | -3.32 | -8.09 | -8.58 | -5.45
[3] | -5.69 | -2.87 | -1.68 | 2.9 | 17.6
[4] | -2.44 | -0.44 | 1.83 | 0.32 | 18.6
[5] | -6.85 | -6.64 | -5.8 | 2.74 | 10.4
[6] | -11.3 | 5.25 | -15.2 | -0.07 | 33.8
[7] | -12.1 | -6.94 | -9.33 | 1.8 | 16.9
[8] | -11.3 | -5.72 | -0.58 | 7.33 | 23.9
[9] | -1.99 | -21.8 | 2.57 | -8.56 | 1.37
[10] | -8.11 | -4.09 | -6.39 | 3.85 | 24.7
[11] | -2.22 | 4.97 | 8.69 | 3.69 | 20.8
[12] | 1.38 | 18.7 | 13.6 | 12.9 | 40.5
[13] | -7.24 | -1.28 | 0.84 | 3.39 | 11.3
[14] | -4.05 | -1.08 | 1.71 | -2.99 | 3.64

Settings | drug sensitivity score
[15] | 0
[16] | 0
[17] | 0.76
[18] | 0.52
[19] | 0.01
[20] | 1.56
[21] | 0.56
[22] | 1.84
[23] | 0
[24] | 1.51
[25] | 0.72
[26] | 5.08
[27] | 0.09
[28] | 0

O=C(c1ccc(OCCN2CCCCC2)cc1)c1c(-c2ccc(O)cc2)sc2cc(O)ccc12 [Raloxifene] (max concentration tested 10000 nM)
percent inhibition of viability [%]
Settings | 1 nM | 10 nM | 100 nM | 1000 nM | 10000 nM
[1] | -3.9 | -1.26 | 0.77 | 10.2 | 53.2
[2] | -6.41 | 2.29 | 1.8 | 13.7 | 68.8
[3] | 0.84 | 1.43 | 3.84 | 8.59 | 10.4
[4] | -6.87 | -0.15 | 5.98 | 4.92 | 96.1
[5] | -4.91 | 3.37 | 0.98 | 11 | 54.9
[6] | 1.94 | 6.91 | -0.59 | -1.98 | 92.6
[7] | 0.85 | -3.33 | 4.79 | 5.35 | 40.5
[8] | 1.76 | 7.99 | -6.69 | 11.2 | 52.2
[9] | -9.5 | -3.4 | -9.29 | -36.4 | 67.1
[10] | -1.19 | 5.28 | -0.98 | 1 | 77
[11] | 1.01 | -6.07 | 1.09 | -7.43 | 20.9
[12] | 2.49 | -4.47 | -6.62 | -34 | 38.5
[13] | -6.02 | -3.78 | 1.06 | 2.77 | 29.1
[14] | -5.87 | -1.12 | 5.04 | 8.98 | 16.6

Settings | drug sensitivity score
[15] | 4.52
[16] | 6.02
[17] | 0
[18] | 6.04
[19] | 4.74
[20] | 4.99
[21] | 2.92
[22] | 4.58
[23] | 2.49
[24] | 4.39
[25] | 0.41
[26] | 1.08
[27] | 1.67
[28] | 0.74
